Results as given in US8637556B2, “Linked Myc-max small molecule inhibitors” (University of Pittsburgh—Of the Commonwealth System of …, priority 2009, dated 2014).
Where two headings read alike, the source gives them in different places. One block for each compound: values may come before it.

Key:
[1] = tested on: Daudi Burkitt lymphoma cells; assay: Burkitt's lymphoma cell growth inhibition (MTT assay); assay type: cell-based; settings: Homo sapiens, Table 3, MTT, third day, read-out: Growth inhibition BL
Experimental: (§1) These assays were performed as previously described using HL60 promyelocytic leukemia cells and Daudi Burkitt lymphoma cells, each of which expresses high levels of endogenous c-Myc (Wang, H. et al. Mol. Cancer Ther. 6, 2399-408 (2007)). As controls for non-specific effects of bivalent compounds, we utilized a c-Myc nulllizygous strain of rat fibroblasts (Mateyak, M. K., et al. Cell Growth & Differentiation 8, 1039-48 (1997)) expressing the c-Myc target genes MT-MC1 and HMGAIb, each of which restores a normal growth rate as well as the TGR1 fibroblast line from which the nullizygous line was derived (Wang, H. et al. Mol. Cancer Ther. 6, 2399-408 (2007); Mateyak, M. K., et al. Cell Growth & Differentiation 8, 1039-48 (1997); and Rothermund, K. et al. Cancer Research 65, 2097-107 (2005)). […] Cell quantification was performed on triplicate wells over the ensuing 4-5 days without changing the medium by measuring the absorbance at 490 nm using the MTT assay (Mosmann, T. Journal of Immunological Methods 65, 55-63 (1983)). IC50 values were estimated from linear regression of the inhibition data at the third day of each experiment.
(§2) We evaluated the efficacy of the linked compounds 11, 12, 13, 16, 17, 18 in inhibiting the c-Myc-Max interaction by measuring the binding of a target DNA sequence (E-Box) by the protein heterodimers in an electrophoretic mobility shift assay (EMSA). […] A fluorinated substitute of 14, 24, the choice of which was based upon the results of structure activity relationship studies described in Wang, H. et al. (Mol. Cancer Ther. 6, 2399-408 (2007)), was employed at this purpose (Muller, K., et al. Science 317, 1881-6 (2007) and Kirk, K. L. Current Topics in Medicinal Chemistry 6, 1447-56 (2006)).

[2] = tested on: HL60 promyelocytic leukemia cells; assay: HL60 cell growth inhibition (MTT assay); assay type: cell-based; settings: Homo sapiens, HL-60; Table 3; MTT, third day; read-out: Growth inhibition HL60
Experimental: as §1, §2

[3] = biological target: T1, c-Myc353-437 (monomeric c-Myc bHLH-ZIP) (Homo sapiens, UniProt P01106); assay: Fluorescence polarization titration, c-Myc bHLH-ZIP binding; settings: for c-Myc binding affinity (in words): FP; for Kd: Table 1
T1 construct: recombinant monomeric c Myc bHLH-ZIP (amino acids 353-437); 6xHis with TEV site (N, cleaved yes); made in house; host or cells: E. coli BL21DE3(pLysS)
T1 sequence (P01106 368-452): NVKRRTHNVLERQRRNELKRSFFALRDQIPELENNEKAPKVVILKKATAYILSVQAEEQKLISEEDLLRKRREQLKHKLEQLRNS
Text: A c-Myc353-437 full-length bHLH-ZIP domain and its truncated version c-Myc390-439 were produced from the c-Myc/pET SKB3 construct, kindly supplied by Dr. S. K. Nair (University of Illinois, Urbana-Champaign), by insertion into the pET151D vector, encoding an N-terminal hexahistidine (6× His), separated by a TEV protease digestion site, with the TOPO® ligation system, and over-expressed in E. coli BL21DE3(pLysS). The 6× His tagged human Max isoform p21, with low homodimerization affinity^70, cloned into the pQE10 vector (Qiagen, Inc.), was over-expressed in E. coli M15(pRep4). Bacterial cultures were grown at 37° C. in LB medium to OD600≈0.8, then induced with 0.5 mM IPTG for 5 hours. Proteins were purified by Ni-agarose chromatography with a pH gradient elution. The 6× His tag of c-MYC353-437 and c-Myc390-439 was cleaved using TEV protease (the TEV protease was expressed in a pET24 vector [courtesy of S. K. Nair] and purified by Ni-agarose chromatography under native conditions). All the proteins were further purified by HPLC and lyophilized. Protein concentrations were determined by measurement of OD280. The synthetic peptide c-Myc363-381 is described in Follis, A. V., Hammoudeh, D. I., Wang, H., Prochownik, E & Metallo, S. J. Structural rationale for the coupled binding and unfolding of the c-Myc oncoprotein by small molecules. Chemistry & Biology 15, 1149-1155 (2008).
Samples were analyzed in a Photon Technology International QuantaMaster fluorimeter (Birmingham, N.J.) equipped with polymer sheet polarizers. Titration experiments were performed upon serial dilution of 1:1 equimolar solution of inhibitor and either c-Myc353-437, c-Myc390-439 or c-Myc363-381 in a 1×PBS buffer (137 mM NaCl, 2.7 mM KCl, 4.3 mM Na2HPO4, 1.4 mM KH2PO4, pH=7.4), 5% DMSO, over concentrations ranging between 200 μM and 1.5 nM. Excitation and emission wavelengths were independently determined for each inhibitor. Reported data represent the average of at least three independent experiments. Data were fit to a quadratic equation derived from the thermodynamic expression of binding equilibrium:
[formula] where [C]0 represents the total concentration of inhibitor and of c-Myc peptide. The value of KD was determined from the experimental polarization data by fitting to Eq. 2 using KaleidaGraph (Synergy Software, Reading, Pa.) where pol0 is the polarization in the absence of binding and Δpol is the total change in polarization (Park, S. H. & Raines, R. T. Fluorescence polarization assay to quantify protein-protein interactions. Methods in Molecular Biology 261, 161-6 (2004)).
[formula] Due to the very tight binding of some of the tested compounds, it was impossible to perform a full binding titration with an acceptable fluorescence intensity, therefore the polo parameter was experimentally determined from samples of each compound in the absence of c-Myc353-437 at a concentration of 25 μM. Binding specificity experiments were performed by monitoring the FP of 10 μM inhibitors solutions in the above-described buffer in the presence of equimolar p21 Max. […] Circular Dichroism.
Also in this case the c-Myc binding affinity was little affected by the introduction of the linker chain (Table 1, FIG. 11).
We then measured the affinity of the synthesized bivalent inhibitors, by monitoring the FP of the compounds nitrobenzofurazan moiety. […] The estimated free energy of binding of the bivalent compounds was roughly proportional to the sum of those of their monovalent components. In the thermodynamic analysis of multivalent binding a ΔG^s term is used to relate the free energy of binding of a multivalent compound to the sum of those of its monovalent components. This term implies the diverse energy contributions resulting from the linking of independent binding components. The ΔG^s term generally constitutes a negative contribution to the binding affinity of distinct binding components connected by a flexible linker to a given target.

[4] = FP titration with c-Myc353-437, 1xPBS pH 7.4, 5% DMSO, read-out: KD (c-Myc affinity, monovalent)

IC50 [1]: 40 µM
IC50 [2]: 50 µM
Compound: CCc1ccc(C=C2SC(=S)NC2=O)cc1 [compound 2, (Z,E)-5-(4-ethyl-benzylidene)-2-thioxo-thiazolidin-4-one, reference compound]

c-Myc binding affinity (in words) [3]: minor loss of c-Myc affinity
Kd [3, 4]: 7 ± 1 µM
Compound: O=[N+]([O-])c1ccc(Nc2ccccc2)c2nonc12 [compound 3]

Compound: CN(C)c1ccc([N+](=O)[O-])c2nonc12 [compound 4]
c-Myc binding affinity (in words) [3]: complete loss of binding affinity
Kd [3, 4]: > 200 µM

Kd [3, 4]: 13 ± 5 µM
Compound: O=C(O)c1ccccc1Nc1ccc([N+](=O)[O-])c2nonc12 [compound 5]

Kd [3, 4]: 16 ± 6 µM
Compound: O=C(O)c1cccc(Nc2ccc([N+](=O)[O-])c3nonc23)c1 [compound 6]

Kd [3, 4]: 3 ± 1 µM
c-Myc binding, times tighter than 5 and 6 ([3]; relative to compounds 5 and 6): ~5 times
Compound: O=C(O)c1ccc(Nc2ccc([N+](=O)[O-])c3nonc23)cc1 [compound 7]

Kd [3, 4]: 90 ± 40 µM
Compound: CC(=O)NCCCCCNC(=O)c1ccc(C=C2SC(=S)NC2=O)cc1 [compound 10]

Kd ([3]; FP of nitrobenzofurazan moiety, c-Myc353-437, read-out: KD (c-Myc affinity, bivalent)): 0.004 ± 0.001 µM
IC50 [1]: 14 to 16 µM
IC50 [2]: 7 to 9 µM
Compound: CCc1ccc(C=C2SC(=O)N(CCCCNC(=O)c3ccc(Nc4ccc([N+](=O)[O-])c5nonc45)cc3)C2=O)cc1 [compound 21]
